Data published in patent publication US20250034216A1, “STEREOSELECTIVE COVALENT LIGANDS FOR ONCOGENIC AND IMMUNOLOGICAL PROTEINS” (The Scripps Research Institute, priority 2021, published 2025).

Columns and labels:
Assay in all cases: IA-DTB cysteine engagement
Conditions in all cases: 22Rv1 cells, 20 μM probe, 1 h, relative to DMSO
DDX39A_C86 = assay type: binding, human
Procedure: Sample preparation: Cells (adherent: 15 cm dishes, suspension: 2 million cells/mL) were treated with electrophilic probes in situ for indicated times and concentrations, washed with ice-cold PBS, and flash frozen in liquid nitrogen. Cell pellets were lysed by sonication (8 pulses, 40% power) in 500 μL ice-cold PBS supplemented with cOmplete protease inhibitors (1 tablet/10 mL of PBS). Whole cell lysates protein content was measured using a standard DC protein assay (Bio-Rad) and 500 μL (2 mg/mL protein content) were treated with 5 μL of 10 mM 1A-DTB (in DMSO) for 1 h at ambient temperature with occasional vortexing. Samples were methanol-chloroform precipitated with the addition of 500 μL ice-cold MeOH and 200 μL CHCl3, vortexed, and centrifuged (10 min, 10,000 g). Without disrupting the protein disk, both top and bottom layers were aspirated and the protein disk was washed with 1 mL ice-cold MeOH and centrifuged (10 min, 10,000 g). The pellets were allowed to air dry, and then re-suspended in 90 μL buffer (9 M urea, 10 mM DTT, 50 mM TEAB pH 8.5). Samples were reduced by heating at 65 C for 20 minutes and water bath sonicated as needed to resuspend the protein pellets, followed by alkylation via addition of 10 μL (500 mM) iodoacetamide and incubated at 37 C for 30 min with shaking. Samples were briefly centrifuged, and probe sonicated once more to ensure complete resuspension, and then diluted with 300 μL buffer (50 mM TEAB pH 8.5) to reach final concentration of 2 M urea. Trypsin (4 μL of 0.25 μg/μL in trypsin resuspension buffer with 25 mM CaCl2)) was added to each sample and digested at 37 C for 2 h to overnight. Digested samples were then diluted with 300 μL wash buffer (50 mM TEAB pH 8.5, 150 mM NaCl, 0.2% NP-40) containing streptavidin-agarose beads (50 μL of 50% slurry in wash buffer) and were rotated at room temperature for 2 hours. Enriched samples were pelleted by centrifugation (2000 g, 2 min) and transferred to BioSpin columns and washed (3×1 mL wash buffer, 3×1 mL PBS, 3×1 mL water). Enriched peptides were eluted by 300 μL 50% acetonitrile with 0.1% formic acid and eluate was evaporated to dryness via speedvac. IA-DTB labeled and enriched peptides were resuspended in 100 μL EPPS buffer (200 mM, pH 8.0) with 30% acetonitrile, vortexed, and water bath sonicated. Samples were TMT labeled with 3 μL of corresponding TMT tag (5 mg tag resuspended in 256 μL acetonitrile), vortexed, and incubated at room temperature for 1 hour. […]
Data processing: Cysteine engagement ratios (probe vs DMSO) were calculated for each peptide-spectra match by dividing each TMT reporter ion intensity by the average intensity for the channels corresponding to DMSO treatment. […]

NT5DC2_C507 = target: T1, NT5DC2_C507 (Homo sapiens, UniProt Q9H857); assay type: binding
T1 construct: endogenous in cells; host or cells: 22Rv1
T1 sequence (Q9H857 1-520): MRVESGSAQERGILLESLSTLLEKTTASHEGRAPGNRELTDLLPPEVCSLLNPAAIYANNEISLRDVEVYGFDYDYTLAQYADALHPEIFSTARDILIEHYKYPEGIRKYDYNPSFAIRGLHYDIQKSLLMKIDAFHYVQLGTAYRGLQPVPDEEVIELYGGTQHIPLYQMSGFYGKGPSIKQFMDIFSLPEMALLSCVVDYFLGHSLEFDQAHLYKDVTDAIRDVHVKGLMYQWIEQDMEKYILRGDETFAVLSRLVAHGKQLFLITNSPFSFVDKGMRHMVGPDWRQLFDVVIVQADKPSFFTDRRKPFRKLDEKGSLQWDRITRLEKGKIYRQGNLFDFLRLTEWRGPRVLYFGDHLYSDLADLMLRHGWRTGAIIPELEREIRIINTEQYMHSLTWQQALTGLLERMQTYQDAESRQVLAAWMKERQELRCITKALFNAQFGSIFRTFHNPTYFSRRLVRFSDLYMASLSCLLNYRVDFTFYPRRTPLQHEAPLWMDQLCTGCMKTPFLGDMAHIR
Procedure: (§1) Sample preparation: Cells (adherent: 15 cm dishes, suspension: 2 million cells/mL) were treated with electrophilic probes in situ for indicated times and concentrations, washed with ice-cold PBS, and flash frozen in liquid nitrogen. Cell pellets were lysed by sonication (8 pulses, 40% power) in 500 μL ice-cold PBS supplemented with cOmplete protease inhibitors (1 tablet/10 mL of PBS). Whole cell lysates protein content was measured using a standard DC protein assay (Bio-Rad) and 500 μL (2 mg/mL protein content) were treated with 5 μL of 10 mM 1A-DTB (in DMSO) for 1 h at ambient temperature with occasional vortexing. Samples were methanol-chloroform precipitated with the addition of 500 μL ice-cold MeOH and 200 μL CHCl3, vortexed, and centrifuged (10 min, 10,000 g). Without disrupting the protein disk, both top and bottom layers were aspirated and the protein disk was washed with 1 mL ice-cold MeOH and centrifuged (10 min, 10,000 g). The pellets were allowed to air dry, and then re-suspended in 90 μL buffer (9 M urea, 10 mM DTT, 50 mM TEAB pH 8.5). Samples were reduced by heating at 65 C for 20 minutes and water bath sonicated as needed to resuspend the protein pellets, followed by alkylation via addition of 10 μL (500 mM) iodoacetamide and incubated at 37 C for 30 min with shaking. Samples were briefly centrifuged, and probe sonicated once more to ensure complete resuspension, and then diluted with 300 μL buffer (50 mM TEAB pH 8.5) to reach final concentration of 2 M urea. Trypsin (4 μL of 0.25 μg/μL in trypsin resuspension buffer with 25 mM CaCl2)) was added to each sample and digested at 37 C for 2 h to overnight. Digested samples were then diluted with 300 μL wash buffer (50 mM TEAB pH 8.5, 150 mM NaCl, 0.2% NP-40) containing streptavidin-agarose beads (50 μL of 50% slurry in wash buffer) and were rotated at room temperature for 2 hours. Enriched samples were pelleted by centrifugation (2000 g, 2 min) and transferred to BioSpin columns and washed (3×1 mL wash buffer, 3×1 mL PBS, 3×1 mL water). Enriched peptides were eluted by 300 μL 50% acetonitrile with 0.1% formic acid and eluate was evaporated to dryness via speedvac. IA-DTB labeled and enriched peptides were resuspended in 100 μL EPPS buffer (200 mM, pH 8.0) with 30% acetonitrile, vortexed, and water bath sonicated. Samples were TMT labeled with 3 μL of corresponding TMT tag (5 mg tag resuspended in 256 μL acetonitrile), vortexed, and incubated at room temperature for 1 hour. TMT labeling was quenched with the addition of hydroxylamine (5 μL 5% solution in H2O) and incubated for 15 minutes at room temperature. Samples were then acidified with 5 μL formic acid, combined and dried using a SpeedVac. Samples were desalted via Sep-Pak and then high pH fractionated.
(§2) Data processing: Cysteine engagement ratios (probe vs DMSO) were calculated for each peptide-spectra match by dividing each TMT reporter ion intensity by the average intensity for the channels corresponding to DMSO treatment. Peptide-spectra matches were then grouped based on protein ID and residue number (e.g., PSME1 C22), excluding peptides with summed reporter ion intensities for the DMSO channels <10,000, coefficient of variation for DMSO channels >0.5, and non-tryptic peptide sequences. TMT reporter ion intensities were normalized to the median summed signal intensity across channels.
(§3) Filtering of cysteine data: Replicates were combined based on cell line and treatment condition (probe, concentration, duration) by averaging cysteine engagement ratios across all experiments.

CENPC_C291 = target: T2, CENPC_C291 (Homo sapiens, UniProt Q03188); assay type: binding
T2 construct: endogenous in cells; host or cells: 22Rv1
Procedure: as §1, §2, §3

BCKDK_C111 = target: T3, BCKDK_C111 (Homo sapiens, UniProt O14874); assay type: binding
T3 construct: endogenous in cells; host or cells: 22Rv1
Procedure: as §1, §2, §3

TRPM4_C758 = target: T4, TRPM4_C758 (Homo sapiens, UniProt Q8TD43); assay type: binding
T4 construct: endogenous in cells; host or cells: 22Rv1
Procedure: as §1, §2, §3

CPT1A_C96 = target: T5, CPT1A_C96 (Homo sapiens, UniProt P50416); assay type: binding
T5 construct: endogenous in cells; host or cells: 22Rv1
T5 sequence (P50416 1-773): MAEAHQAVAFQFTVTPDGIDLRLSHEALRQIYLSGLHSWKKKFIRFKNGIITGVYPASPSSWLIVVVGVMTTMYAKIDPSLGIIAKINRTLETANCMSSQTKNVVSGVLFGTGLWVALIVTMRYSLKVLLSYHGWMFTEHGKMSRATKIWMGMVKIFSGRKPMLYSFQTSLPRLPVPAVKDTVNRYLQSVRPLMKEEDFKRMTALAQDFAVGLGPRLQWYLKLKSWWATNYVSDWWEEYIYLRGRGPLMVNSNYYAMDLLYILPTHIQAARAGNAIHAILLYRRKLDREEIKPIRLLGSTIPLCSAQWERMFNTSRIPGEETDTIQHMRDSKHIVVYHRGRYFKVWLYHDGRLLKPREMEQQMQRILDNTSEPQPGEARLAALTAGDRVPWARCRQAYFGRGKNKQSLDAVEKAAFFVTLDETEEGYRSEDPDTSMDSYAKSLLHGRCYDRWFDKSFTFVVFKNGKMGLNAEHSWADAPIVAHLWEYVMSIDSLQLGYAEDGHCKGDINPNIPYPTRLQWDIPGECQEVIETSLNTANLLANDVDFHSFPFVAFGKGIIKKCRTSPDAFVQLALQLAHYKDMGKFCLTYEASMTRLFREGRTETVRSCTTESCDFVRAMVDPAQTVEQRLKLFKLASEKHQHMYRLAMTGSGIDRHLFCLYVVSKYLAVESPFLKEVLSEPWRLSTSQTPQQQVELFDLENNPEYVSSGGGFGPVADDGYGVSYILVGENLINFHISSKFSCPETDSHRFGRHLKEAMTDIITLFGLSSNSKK
Procedure: as §1, §2, §3

T4 sequence (Q8TD43 whole entry): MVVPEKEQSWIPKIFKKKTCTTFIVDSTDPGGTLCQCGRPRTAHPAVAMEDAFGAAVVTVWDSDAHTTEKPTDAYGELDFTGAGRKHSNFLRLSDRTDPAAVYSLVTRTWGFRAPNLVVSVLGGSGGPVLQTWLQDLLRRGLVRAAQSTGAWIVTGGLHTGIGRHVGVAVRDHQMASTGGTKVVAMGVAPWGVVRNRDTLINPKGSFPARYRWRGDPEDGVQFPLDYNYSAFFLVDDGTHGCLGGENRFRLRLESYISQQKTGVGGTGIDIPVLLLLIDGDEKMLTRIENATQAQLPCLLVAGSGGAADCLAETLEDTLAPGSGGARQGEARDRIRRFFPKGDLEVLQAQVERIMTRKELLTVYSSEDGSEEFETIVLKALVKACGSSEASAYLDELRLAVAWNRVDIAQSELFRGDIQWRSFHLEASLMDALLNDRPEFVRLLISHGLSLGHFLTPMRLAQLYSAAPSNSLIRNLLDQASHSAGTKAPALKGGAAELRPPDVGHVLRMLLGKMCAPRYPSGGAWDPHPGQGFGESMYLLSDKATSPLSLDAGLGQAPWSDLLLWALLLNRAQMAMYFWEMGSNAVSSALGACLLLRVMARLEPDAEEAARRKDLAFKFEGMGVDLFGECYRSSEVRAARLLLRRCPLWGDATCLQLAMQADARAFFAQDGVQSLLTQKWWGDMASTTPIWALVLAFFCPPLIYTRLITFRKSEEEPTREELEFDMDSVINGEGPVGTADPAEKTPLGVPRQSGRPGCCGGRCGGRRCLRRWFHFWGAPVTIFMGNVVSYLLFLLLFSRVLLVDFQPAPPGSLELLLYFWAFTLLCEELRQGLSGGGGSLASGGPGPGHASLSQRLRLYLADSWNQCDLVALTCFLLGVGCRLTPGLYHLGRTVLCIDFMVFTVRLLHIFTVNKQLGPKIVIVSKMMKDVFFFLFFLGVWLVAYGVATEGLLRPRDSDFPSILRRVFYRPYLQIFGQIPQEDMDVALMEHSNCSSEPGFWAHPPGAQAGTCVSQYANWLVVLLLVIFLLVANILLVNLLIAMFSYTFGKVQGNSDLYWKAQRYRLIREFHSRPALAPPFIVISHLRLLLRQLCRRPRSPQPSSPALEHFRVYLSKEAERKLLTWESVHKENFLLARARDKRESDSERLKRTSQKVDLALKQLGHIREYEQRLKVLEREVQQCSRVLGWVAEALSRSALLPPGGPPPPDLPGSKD
T2 sequence (Q03188 whole entry): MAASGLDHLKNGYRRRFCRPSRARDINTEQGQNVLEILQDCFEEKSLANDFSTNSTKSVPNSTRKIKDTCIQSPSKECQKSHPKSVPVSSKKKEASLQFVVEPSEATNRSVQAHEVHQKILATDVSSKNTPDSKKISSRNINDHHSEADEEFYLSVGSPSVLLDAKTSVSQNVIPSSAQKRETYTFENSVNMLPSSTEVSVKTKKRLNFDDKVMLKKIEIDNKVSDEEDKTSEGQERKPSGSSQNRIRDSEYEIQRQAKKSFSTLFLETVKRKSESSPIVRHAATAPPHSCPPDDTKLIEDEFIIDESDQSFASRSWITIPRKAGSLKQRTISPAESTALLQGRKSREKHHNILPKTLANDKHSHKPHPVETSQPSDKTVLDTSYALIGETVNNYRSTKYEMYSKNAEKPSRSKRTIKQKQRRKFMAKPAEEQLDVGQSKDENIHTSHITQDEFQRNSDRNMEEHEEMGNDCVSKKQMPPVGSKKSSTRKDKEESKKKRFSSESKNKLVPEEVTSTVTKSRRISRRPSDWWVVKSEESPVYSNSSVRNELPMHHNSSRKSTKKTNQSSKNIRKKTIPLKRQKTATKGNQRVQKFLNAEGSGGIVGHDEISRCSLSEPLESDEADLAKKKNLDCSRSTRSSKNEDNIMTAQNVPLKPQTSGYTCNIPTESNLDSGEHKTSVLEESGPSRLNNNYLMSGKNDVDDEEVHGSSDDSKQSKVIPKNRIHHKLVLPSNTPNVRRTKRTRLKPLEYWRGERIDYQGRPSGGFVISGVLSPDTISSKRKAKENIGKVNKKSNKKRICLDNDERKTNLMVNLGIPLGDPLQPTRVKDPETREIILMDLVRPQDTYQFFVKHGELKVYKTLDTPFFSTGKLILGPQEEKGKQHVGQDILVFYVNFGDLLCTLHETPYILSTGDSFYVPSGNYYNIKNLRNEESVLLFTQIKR

## C=CC(=O)N1C[C@@H](c2ccc(Br)cc2)[C@H]1C(=O)Nc1cccc2cccnc12 [MY-1A, (2S,3R)-1-acryloyl-3-(4-bromophenyl)-N-(quinolin-8-yl)azetidine-2-carboxamide]
DDX39A_C86
  % engagement DDX39A_C86: 44.5%
NT5DC2_C507
  % engagement NT5DC2_C507: 83.75%
CENPC_C291
  % engagement CENPC_C291: −1.5%
BCKDK_C111
  % engagement BCKDK_C111: 17.25%
TRPM4_C758
  % engagement TRPM4_C758: 40.5%
CPT1A_C96
  % engagement CPT1A_C96: 87%

## C=CC(=O)N1C[C@H](c2ccc(Br)cc2)[C@@H]1C(=O)Nc1cccc2cccnc12 [MY-1B, (2R,3S)-1-acryloyl-3-(4-bromophenyl)-N-(quinolin-8-yl)azetidine-2-carboxamide]
DDX39A_C86
  % engagement DDX39A_C86: 37%
NT5DC2_C507
  % engagement NT5DC2_C507: 67.25%
CENPC_C291
  % engagement CENPC_C291: 7%
BCKDK_C111
  % engagement BCKDK_C111: 14.5%
TRPM4_C758
  % engagement TRPM4_C758: 54.5%
CPT1A_C96
  % engagement CPT1A_C96: 84.75%

## C=CC(=O)N1C[C@H](c2ccc(Br)cc2)[C@H]1C(=O)Nc1cccc2cccnc12 [MY-3A, (2S,3S)-1-acryloyl-3-(4-bromophenyl)-N-(quinolin-8-yl)azetidine-2-carboxamide]
DDX39A_C86
  % engagement DDX39A_C86: 23.5%
NT5DC2_C507
  % engagement NT5DC2_C507: 50.5%
CENPC_C291
  % engagement CENPC_C291: 28%
BCKDK_C111
  % engagement BCKDK_C111: 19.5%
TRPM4_C758
  % engagement TRPM4_C758: 29.5%
CPT1A_C96
  % engagement CPT1A_C96: 89.25%

## C=CC(=O)N1C[C@H](c2ccc(Br)cc2)[C@H]1C(=O)Nc1cccc2cccnc12 [MY-3B, (2S,3S)-1-acryloyl-3-(4-bromophenyl)-N-(quinolin-8-yl)azetidine-2-carboxamide]
DDX39A_C86
  % engagement DDX39A_C86: 67.5%
NT5DC2_C507
  % engagement NT5DC2_C507: 57.5%
CENPC_C291
  % engagement CENPC_C291: 82.5%
BCKDK_C111
  % engagement BCKDK_C111: 76.75%
TRPM4_C758
  % engagement TRPM4_C758: 73.5%
CPT1A_C96
  % engagement CPT1A_C96: 93.5%
